Laboratory results taken from patent US20240327415A1, “Multicomponent Complexes, Including Salts, Crystalline Forms, and Hydrates and Solvates of ENT1 Inhibitors” (iTeos Belgium SA, priority 2023, published 2024).

How the values were obtained:
Assay type in all cases: physicochemical
[1] = seven-day solid stability studies (ambient; 40° C./75% RH; 80° C.), XRPD and HPLC
Method: (§1) In the experiment, one set of vials was exposed to ambient light, temperature and humidity conditions. Another was exposed openly to 40° C. and 75% RH conditions and a third was sealed and exposed to 80° C. conditions. After 7 days, XRPD and HPLC measurements were collected.
(§2) Example 12-Stability Studies of Amorphous Compound 1 (free base) and Crystalline Form 1 Compound 1 (free base): Seven-day stability studies were carried out comparing amorphous Compound 1 (free base) and crystalline Form 1 Compound 1 (free base) at 40° C./75% RH, under ambient conditions and at 80° C. After storage at 40° C./75% RH and 80° C., the amorphous material formed glassy solids which were pale yellow (40° C./75% RH) or orange (80° C.). It is likely that the material melted and re-solidified at 80° C. and deliquesced at 40° C./75% RH. […] (decrease in purity of ca. 11% area).
Example 15-Stabilities Studies-Crystalline Form 3 Compound 1 di(hydrogen sulfate) and Crystalline Form 4 Compound 1 mono(hydrogen sulfate): Seven-day stability studies were carried out on the prepared crystalline Form 3 Compound 1 di(hydrogen sulfate) and crystalline Form 4 Compound 1 mono(hydrogen sulfate) using the following conditions: (1) Ambient light, temperature and humidity conditions (open vial); (2) 40° C./75% RH (open vial); and (3) 80° C. (closed vial). After 7 days of storage under the specified conditions, XRPD and HPLC analyses were carried out on the residual solid materials, and the results are summarized in Table 51.
Example 18-Seven Day Stability Study on Crystalline Form 2 Compound 1 di(hydrogen sulfate) trihydrate: A 7-day stability study was conducted on crystalline Form 2 Compound 1 di(hydrogen sulfate) trihydrate using the following conditions: (1) ambient light, temperature, and humidity conditions (open vial); (2) 40° C., 75% RH (open vial); and (3) 80° C. (closed vial). After 7 days of storage under the specified, XRPD and HPLC analyses were carried out on the residual solid materials.

[2] = hydration mapping studies (slurries at different water activities, Example 17); conditions: aw 0.1, dried 40° C. reduced pressure 24 hr
Method: Example 17—Hydration Mapping Studies-Crystalline Form 2 Compound 1 di(hydrogen sulfate) trihydrate, Crystalline Form 3 Compound 1 di(hydrogen sulfate), and Blend: The effects of different water activities on crystalline Form 2 Compound 1 di(hydrogen sulfate) trihydrate, crystalline Form 3 Compound 1 di(hydrogen sulfate) and a blend of the two were investigated. The “blend” was prepared by mixing crystalline Form 2 Compound 1 di(hydrogen sulfate) trihydrate and crystalline Form 3 Compound 1 di(hydrogen sulfate) in a 1:1 ratio. To the vials containing the required solid material, the appropriate solvent system was added to form slurries. The slurry samples were stirred at the required temperatures during and after the solvent addition. Where dissolution was observed post-solvent addition, additional solid was added to re-saturate the sample. After stirring at the required temperature for 48 hours, the residual solids left in the vials were analyzed by XRPD to assess the solid forms. The analyzed samples were then dried on the XRPD plate under reduced pressure at 40° C. for 24 hr. The dried samples were analyzed by XRPD.

[3] = seven-day solid stability studies (ambient; 40° C./75% RH; 80° C.), XRPD and HPLC; design: key: Crystalline Form 2 di(hydrogen sulfate) trihydrate; Crystalline Form 3 di(hydrogen sulfate); M4: Crystalline Form 4 mono(hydrogen sulfate); Crystalline Form 6 di(hydrogen sulfate); 3 + 9: Mixture of Crystalline Form 3 di(hydrogen sulfate) and Crystalline Form 9 di(hydrogen sulfate); conditions: 7 days, 80° C. (closed vial)
Method: as §1, §2
(§3) Example 15-Stabilities Studies-Crystalline Form 3 Compound 1 di(hydrogen sulfate) and Crystalline Form 4 Compound 1 mono(hydrogen sulfate): Seven-day stability studies were carried out on the prepared crystalline Form 3 Compound 1 di(hydrogen sulfate) and crystalline Form 4 Compound 1 mono(hydrogen sulfate) using the following conditions: (1) Ambient light, temperature and humidity conditions (open vial); (2) 40° C./75% RH (open vial); and (3) 80° C. (closed vial). […]

[4] = as above; design: key: Crystalline Form 3 di(hydrogen sulfate); Crystalline Form 9 di(hydrogen sulfate); Melt/Amorphous; conditions: 7 days, sealed
Method: as §1, §2, §3

[5] = salt screen, XRPD of damp, dried and 40° C./75% RH stored samples (Salt Preparation Methods 1 and 2); design: key: A = amorphous; * = predominantly; 1 = Form 1 Compound 1 L-malate; 2 = Form 2 Compound 1 L-malate; conditions: L-Malic acid, 1 equiv.; MEK; AS Heptane
Method: Salt Preparation Method 1: Approximately 25 mg of Compound 1 (free base) was weighed out into 1.5 mL screw-cap vials and a stirrer bar was added. For solid counterions, the appropriate amount of acid (1.0 or 2.0 equiv.) was weighed into separate 1.5 mL screw-cap vials. 100 μL of the appropriate solvent system was added to both the Compound 1 and the solid counterions. Stock solutions of liquid counterions were prepared, such that 100 μL contained 1.0 or 2.0 equiv. of acid. See counterion and solvent lists in Table 60 and Table 61 respectively.
The samples were stirred at 40° C. for 5-10 min and then the acid solutions were added to Compound 1, rinsing out the transfer vial with a further 50 μL of solvent. […] Experiments were temperature cycled between 40° C. and 5° C. […]
Temperature cycling was then continued for ca. 16-69 h, followed by further ASA and temperature cycling if required. Material was isolated at 5° C. and analyzed damp by XRPD. All isolated material was dried under vacuum at ca. 40° C. for ca. 17-91 h then re-analyzed by XRPD. The XRPD plate was stored at 40° C./75% RH for 24-48 h and then samples re-analyzed. […] Any residual solids were analyzed by XRPD. […]
The experiments were stirred at 40° C. for ca. 1 h, and then temperature cycled between 40° C. and 5° C. with 0.1° C./min ramp and 1 h hold between each step. […] The damp and dried solids were subsampled and analyzed by XRPD. […]

[6] = as above; conditions: L-Malic acid, 1 equiv., AS Heptane
How it was run: (§4)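 Free base (~25 mg) was stirred at 40 °C with 1.0 or 2.0 equiv. acid in the test solvent, then temperature-cycled 40–5 °C (0.1 °C/min, 1 h holds) with anti-solvent addition as needed. Solids were isolated at 5 °C and run by XRPD damp, after vacuum drying at ~40 °C for ~17–91 h, and after 24–48 h at 40 °C/75% RH.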

[7] = as above; design: key: A = amorphous; Evap. = isolated via evaporation; conditions: L-Malic acid, 1 equiv.
How it was run: as §4

COc1cc(C(=O)O[C@@H]2CCCOc3cc(cc(OC)c3OC)C(=O)NCCCN3CCCN(CC2)CC3)cc(OC)c1OC.O=S(=O)(O)O.O=S(=O)(O)O [Form 3 di(hydrogen sulfate)]
HPLC ([1]; 7 days, 40° C./75% RH (open vial)): 99.82 % area | HPLC ([1]; 7 days, 40° C./75% RH, open vial): 99.82 % area | HPLC ([1]; 7 days, 80° C. (closed vial)): 99.80 % area | HPLC ([1]; 7 days, 80° C., sealed): 99.80 % area | HPLC ([1]; 7 days, Ambient (open vial)): 99.84 % area | HPLC ([1]; 7 days, Ambient, open vial): 99.84 % area | HPLC ([1]; Input sample): 99.83 % area | XRPD, hydration studies - dried samples ([2]; 20° C., 2-Propanol:Water): 3, PC | XRPD, hydration studies - dried samples ([2]; 20° C., Acetonitrile:Water): 3, PC | XRPD, hydration studies - dried samples ([2]; 50° C., 2-Propanol:Water): 1, PC | XRPD, hydration studies - dried samples ([2]; 50° C., Acetonitrile:Water): 3, PC | XRPD [3]: 3 + 9 | XRPD [4]: 9

O=C(O)CC(O)C(=O)O [L-Malic acid, 1 equiv.]
XRPD Analysis 40° C. 75% RH [5]: 1 | XRPD Analysis Damp ([6]; Ethanol): * A | XRPD Analysis Dry ([6]; Ethanol): * A | XRPD Analysis Damp ([6]; MEK): 1 + 2 | XRPD Analysis Dry ([6]; MEK): 1 + 2 | XRPD Analysis 40° C. 75% RH ([7]; Acetonitrile, AS tBME): A | XRPD Analysis Damp ([7]; Acetonitrile, AS tBME): A | XRPD Analysis Dry ([7]; Acetonitrile, AS tBME): A | XRPD Analysis 40° C. 75% RH ([7]; Ethanol, AS Heptane): A | XRPD Analysis 40° C. 75% RH ([7]; Ethyl acetate, AS Heptane): A | XRPD Analysis Damp ([7]; Ethyl acetate, AS Heptane): A | XRPD Analysis Dry ([7]; Ethyl acetate, AS Heptane): A | XRPD Analysis 40° C. 75% RH ([7]; IPA:H2O (75:25% v/v), AS tBME): A | XRPD Analysis Damp ([7]; IPA:H2O (75:25% v/v), AS tBME): A | XRPD Analysis Dry ([7]; IPA:H2O (75:25% v/v), AS tBME): A | XRPD Analysis 40° C. 75% RH ([7]; THE, AS Heptane): A | XRPD Analysis Damp ([7]; THE, AS Heptane): A | XRPD Analysis Dry ([7]; THE, AS Heptane): A
